Results on 29 molecules are retold here after PubChem BioAssay (NCI).

What all share (test): growth of human tumour cells (NCI), 48 h
For test [1], the system named is ACHN renal.
In test [2] the test system is CAKI-1 renal.
Test [3] has as its system EKVX NSCLC.
For test [4], the system named is IGROV1 ovarian.
Test [5] deals with KM12 colon.
The subject of test [6] is OVCAR-5 ovarian.
For test [7], the system named is RXF 393 renal.
For test [8], the system named is SR leukemia.
Test [9] deals with HS 578T breast.
Test [10] deals with MDA-MB-435.

“And” between values parts separate entries of the source, which are not always exact repeats. Identical values can stand only once.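 Five compound concentrations were applied to cells in 96-well plates for 48 hours; endpoints were derived by simple linear interpolation of the resulting dose-response curve. GI50 = concentration required for 50% inhibition of growth. TGI marks complete inhibition of growth.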

Turning to `O=C([CH-]C(=O)c1ccccc1)c1ccccc1.[CH-]1CCCCC1.[CH-]1CCCCC1.[CH-]1CCCCC1.[Sn+4]`, the GI50 in [1] was 13.8 µM; in test [2], 4.52 µM; in [3], 10.7 µM; in test [4], 11.8 µM; in [5], 10.8 µM; in test [6], 22.8 µM. Besides, the GI50 in test [7] was 2.71 µM. The TGI in test [1] stood at 31.9 µM; in test [2], 18.1 µM; in [3] it was 32.6 µM; in test [4] it was 33.4 µM; in [5] it was 24.2 µM; in [6] it was 39.7 µM. The molecule further gave a TGI in [7] of 10.1 µM.
`COc1ccc2c3c([nH]c2c1[N+](=O)[O-])C(C)N(Cc1ccccc1)CC3` (stereo not given): the TGI was over 100 µM in [1]; over 100 µM in [2]; over 100 µM in test [3]; 30.9 µM in test [4]; over 100 µM in test [5]; over 100 µM in [6]. Further, the TGI worked out at 17.9 µM in test [7] and 45.2 µM in test [8].
With `COC(=O)C1Cc2c(n(C)c3ccccc23)C(CCC(=O)O)N1Cc1ccccc1` (stereo not given), the TGI in [1] is 81.8 µM; in [2] it was over 100 µM; in test [3], over 100 µM; in test [4], over 100 µM; in test [5], 81.4 µM; in [6] it was over 100 µM. The same molecule came in with a TGI in test [7] of 89.7 µM.
`COc1cc(/C=C/C(=O)/C=C/c2ccc(-n3ccnc3C)cc2)ccc1O`: the GI50 is 3.04 µM in [1]; 3.06 µM in test [2]; 21 µM in test [3]; 2.04 µM in test [4]; 2.07 µM in test [5]; 14.9 µM in [6]. Besides, the GI50 in test [7] is 1.66 µM; in test [8] it was 2.55 µM. Besides, the TGI in test [1] was determined as 10.4 µM; in test [2], 10.9 µM; in test [3], 99 µM; in [4], 5.12 µM; in test [5], 4.25 µM; in test [6], 39.3 µM. Besides, the TGI in test [7] was 3.18 µM; in [8], over 100 µM.
As to `COC(=O)N/N=C(\C)c1c(O)cc(C)oc1=O`, the TGI in test [1], in [3], in test [4], in test [5] and in test [8] was over 100 µM each time.
For `CC(=O)[O-].Cn1ccnc1CNCc1nccn1C.[Cu+2].[O-][Cl+3]([O-])([O-])[O-]`, the GI50 in test [3], in test [4], in [5] and in [7] was over 100 µM throughout. Moreover, the TGI in test [3], in test [4], in test [5] and in test [7] was over 100 µM each time.
Consider `N/C(=N\N=C\c1ccc(C(F)(F)F)cc1)NO`, for which the TGI in test [1] is 25.6 µM; in test [2] it was 38.1 µM; in test [3], 33.7 µM; in test [4] it was 33.2 µM; in test [5] it was over 100 µM; in test [7], over 100 µM. The molecule further came in with a TGI in test [8] of over 100 µM.
As to `O=[N+]([O-])C=C(c1ccc(Cl)cc1)c1ccc(Cl)cc1`, the TGI in test [1] came to 30.5 µM; in test [2], 37.7 µM; in [3] it was 32.5 µM; in [4] it was 48.1 µM; in test [5] it was 30.1 µM; in test [6], 27.7 µM. Moreover, the TGI came to 33.5 µM in [7] and 54 µM in [8].
Regarding `CCCCCCCCCCCCCCCCCCn1cc[n+](C)c1`, the GI50 was 0.54 µM and 0.69 µM in test [1]; 0.335 µM in [9]; 0.253 µM and 0.516 µM in test [4]; 0.275 µM in test [5]; 0.605 µM in test [6]; 0.451 µM in test [7]. The GI50 in test [8] is 1.24 µM. The TGI in test [1] was 2.04 µM and 2.03 µM; in [9] it was 1.8 µM; in [5] it was 0.879 µM; in [6] it was 2 µM; in test [7], 1.54 µM; in test [8], over 100 µM.
In the case of `COc1ccc(/C(COc2ccc3oc(-c4ccccc4)cc(=O)c3c2)=N\O)cc1`, the GI50 is 0.331 µM in test [1]; 0.0618 µM in [2]; 0.229 µM in [3]; under 0.005 µM in test [4]; 0.0245 µM in [5]; under 0.005 µM in [10]. Further, the GI50 is 0.377 µM in test [6] and 47.4 µM in [7]. The TGI is 20 µM in test [1]; 24.7 µM in [2]; 1.91 µM in [3]; over 50 µM in test [4]; 1.89 µM in test [5]; under 0.005 µM in test [10]. The TGI in test [6] was over 25.5 µM; in [7] it was over 50 µM; in [8], over 50 µM.
Take `CCOC(=O)C(=O)CC1=Nc2ccccc2SC(c2cccc(C)c2)C1` (stereo not given): the TGI in test [1] worked out at 30.3 µM; in test [2], 54 µM; in test [3], 40.4 µM; in test [4], 35.7 µM; in test [5], 30.9 µM; in test [6], 31.8 µM. The molecule further registered a TGI in [8] of 60.5 µM.
On to `CC1/C(=N\O)CC(c2ccccc2)N(C)C1c1ccccc1` (stereo not given), for which the TGI in test [1], in test [2], in test [3], in [4], in test [5] and in test [6] was over 100 µM each time. The same molecule showed a TGI in test [7] of over 100 µM.
On to `CCOP(=O)(OCC)C1CCCOC1=O` (stereo not given), for which the TGI in [1], in test [2], in [3], in test [4], in [5] and in [6] was over 100 µM in each case. This molecule also came in with a TGI in test [7] of over 100 µM.
`CC1=C(/C=C/C(C)=C/C2CC(N(C)C)=CC(=O)O2)C(C)(C)CCC1` (stereo not given): the TGI in test [1] worked out at 24.8 µM; in test [2], 37.1 µM; in test [3], 27.9 µM; in test [4], 29 µM; in test [5], 31.2 µM; in test [6], 24.1 µM. The TGI in test [7] was determined as 31.1 µM; in test [8], 28.7 µM.
On to `COc1ccc2c(c1OC)CO[C@@H]2[C@H]1c2c(cc3c(c2OC)OCO3)CCN1S(=O)(=O)c1cn(C)cn1`, for which the GI50 in test [1] is 1.73 µM; in [2], 1.01 µM; in test [3] it was 13.1 µM; in [4] it was 1.45 µM; in test [5], 0.684 µM; in test [6] it was 4.22 µM. Moreover, the GI50 in test [8] was 0.902 µM. Also, the TGI in [1], in test [2], in [3], in test [4], in [5] and in test [6] was over 100 µM in each case. This molecule also gave a TGI in [8] of over 100 µM.
Regarding `CC1=C(C(=O)Nc2ccccc2)C(c2cccc3ccccc23)C(C(=O)Nc2ccccc2)=C(C)N1`, the TGI in [1] was determined as 83.8 µM; in test [2], 38.2 µM; in test [3], 37.6 µM; in [4], 56.9 µM; in test [6], 44.6 µM; in [7], 29.2 µM. For the same molecule, the TGI in test [8] amounted to 22.6 µM.
As for `CN(C)C(=N/O)/C(=N\O)N(C)C`, the TGI in test [1], in test [2], in [3], in test [4], in test [5] and in test [6] was over 100 µM in each case. In addition, the TGI in [7] and in [8] was over 100 µM throughout.
With `O=C(/C=C/c1ccccc1F)c1ccc(Cl)c(Cl)c1`, the TGI in test [1] was over 100 µM; in test [2], over 80.2 µM; in [3] it was over 100 µM; in test [4] it was over 72.6 µM; in test [5], 45 µM; in test [6], over 100 µM. The TGI is 62.4 µM in [7] and over 100 µM in test [8].
With `Cc1cccc(C)c1NC(=O)C1=NC(=S)NC(c2ccccc2)C1c1nc2ccccc2s1` (stereo not given), the TGI in test [1], in test [2], in test [3], in [4], in [5] and in test [7] was over 100 µM in each case. Moreover, the TGI in test [8] is over 100 µM.
Turning to `O=C(CC1OC(O)C(Cl)=C1Cl)c1cccnc1` (stereo not given), the TGI in test [1] was over 31.6 µM; in [2] it was over 100 µM; in test [3] it was over 100 µM; in test [4], over 100 µM; in [5], over 100 µM; in test [6], over 100 µM. In addition, the TGI in [7] and in test [8] was over 100 µM throughout.
With `CN(C)CCNC(=O)c1cccc2cc3c(Cl)cccc3nc12`, the TGI in test [1] was 2.35 µM; in test [2], over 21.8 µM; in test [3], 9.58 µM; in test [4], 6.96 µM; in test [5] it was 7.28 µM; in test [6], 6.68 µM. Also, the figures for the TGI in [7] and in [8] were 3.62 µM and 14.8 µM, respectively.
With `CCCCCCCCCCCCCC[N+](C)(C)CCCCCCCCCCCCCC`, the GI50 in test [1] was 2.62 µM; in [2] it was 3.56 µM; in [9], 5.65 µM; in [6], 2.92 µM; in [7], 1.28 µM; in [8] it was 2.46 µM. For the same molecule, the TGI came to 6.85 µM in [1]; 24.3 µM in [2]; 24.8 µM in test [9]; 9.91 µM in test [6]; 2.78 µM in test [7]; 9.96 µM in test [8].
For the molecule `C[CH2][Ge]([CH2]C)([CH2]C)[O]C(=O)C(OC(C)=O)c1ccccc1` (stereo not given), the GI50 in test [1] was over 100 µM; in test [2], over 100 µM; in [3] it was 38.3 µM; in test [4], over 100 µM; in test [5], over 100 µM; in [6] it was over 100 µM. In addition, the TGI in test [1], in test [2], in test [3], in test [4], in test [5] and in test [6] was over 100 µM throughout.
For `O=C1C(c2ccc(Br)cc2)=[N+]([O-])c2ccccc21`, the TGI is 26.2 µM in test [1]; 29.5 µM in test [3]; 33.8 µM in test [4]; 30.4 µM in test [5]; 35.5 µM in test [6]; 31.4 µM in test [7].
On to `c1ccc(C2OC3(CCC[C@H]4C[C@H]43)O[C@H]2c2ccccc2)cc1` (stereo not given in full), for which the TGI in [1] is over 100 µM; in test [2], 74.7 µM; in test [3], over 100 µM; in test [4], over 100 µM; in test [5] it was over 100 µM; in [6], over 100 µM. For the same molecule, the TGI in test [7] stood at 79 µM; in [8] it was 54.2 µM.
Consider `CC1=C(c2ccccc2)C(O)(c2ccccc2)C(C)C1=O` (stereo not given), for which the GI50 is 35.6 µM in [1]; 24.6 µM in test [2]; 35.1 µM in test [3]; 10.3 µM in [4]; 7.52 µM in test [5]; 2.13 µM in [10]. For the same molecule, the GI50 in test [6] is 53.1 µM; in test [7], 17.4 µM; in test [8], 3.75 µM. Moreover, the TGI was over 100 µM in test [1]; over 100 µM in [2]; over 100 µM in [3]; over 100 µM in [4]; over 100 µM in test [5]; 5.47 µM in test [10]. The TGI in [6], in test [7] and in test [8] was over 100 µM throughout.
For `O=C1C=CC=C/C1=C1/SC(c2ccccc2)=C(O)N1c1ccccc1`, the TGI in test [1], in test [2], in test [3], in [4], in test [5] and in test [6] was over 100 µM throughout. For the same molecule, in test [7], the TGI is over 100 µM.
As for `Cc1cccc(C2SCc3nc4ccccc4n32)c1` (stereo not given), the TGI was over 100 µM in test [1]; over 100 µM in [2]; 68.4 µM in [3]; over 100 µM in [4]; 79.8 µM in test [5]; 65.8 µM in [6]. For the same molecule, the TGI in test [7] was 43.9 µM; in [8] it was 64.2 µM.
Take `CC(=O)c1c2c(cc3c1CC1(C3)Cc3cc4c(c(C(C)=O)c3C1)CCC4)CCC2`: the TGI in test [1], in [2], in [4], in test [5], in test [6] and in test [7] was over 100 µM throughout. In test [8], this molecule registered a TGI of over 100 µM.
